Tests used:
[1] = molecular target: T1, Peroxisome proliferator-activated receptor alpha (Homo sapiens, UniProt Q07869); assay: Agonist activity at human PPARalpha in HepG2 cells by PPAR-GAL4 transactivation assay; format: functional, cell-based
T1 sequence (Q07869 whole entry): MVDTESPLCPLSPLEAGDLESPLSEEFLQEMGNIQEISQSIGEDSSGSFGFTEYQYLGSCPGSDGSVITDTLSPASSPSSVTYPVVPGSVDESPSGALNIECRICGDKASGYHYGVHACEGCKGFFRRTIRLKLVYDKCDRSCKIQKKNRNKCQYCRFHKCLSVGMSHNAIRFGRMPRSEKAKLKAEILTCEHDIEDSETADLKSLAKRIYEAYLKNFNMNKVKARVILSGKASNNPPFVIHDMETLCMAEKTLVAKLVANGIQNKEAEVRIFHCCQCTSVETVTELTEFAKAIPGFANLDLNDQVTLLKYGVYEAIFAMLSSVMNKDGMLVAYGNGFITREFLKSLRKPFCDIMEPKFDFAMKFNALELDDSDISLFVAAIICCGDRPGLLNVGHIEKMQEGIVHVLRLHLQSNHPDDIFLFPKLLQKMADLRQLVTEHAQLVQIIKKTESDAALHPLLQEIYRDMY

[2] = molecular target: T2, Peroxisome proliferator-activated receptor gamma (Homo sapiens, UniProt P37231)
T2 sequence (P37231 whole entry): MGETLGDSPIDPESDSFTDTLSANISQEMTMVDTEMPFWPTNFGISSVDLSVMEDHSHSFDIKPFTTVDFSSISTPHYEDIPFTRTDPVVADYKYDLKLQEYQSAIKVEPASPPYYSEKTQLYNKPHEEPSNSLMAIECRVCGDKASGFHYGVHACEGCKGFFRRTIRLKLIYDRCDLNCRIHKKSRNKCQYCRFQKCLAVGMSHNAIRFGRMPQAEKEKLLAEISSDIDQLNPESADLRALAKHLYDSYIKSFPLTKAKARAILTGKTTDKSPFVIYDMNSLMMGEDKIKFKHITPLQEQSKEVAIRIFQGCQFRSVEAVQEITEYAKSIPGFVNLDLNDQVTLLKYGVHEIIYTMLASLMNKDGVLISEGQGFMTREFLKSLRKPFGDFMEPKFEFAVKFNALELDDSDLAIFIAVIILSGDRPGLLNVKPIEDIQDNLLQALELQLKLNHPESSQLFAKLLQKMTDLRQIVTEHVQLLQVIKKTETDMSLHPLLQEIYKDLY
Description: Agonist activity at human PPARgamma in HepG2 cells by PPAR-GAL4 transactivation assay

[3] = AUC (0-24 hrs) in Sprague-Dawley rat at 10mg/kg, po; format: ADME, organism-based; design: dose 10 mg/kg, time < 24 hr, route oral; conditions: plasma
[4] = AUC (0-24 hrs) in Sprague-Dawley rat at 5 mg/kg, iv; format: ADME, organism-based; design: time < 24 hr, dose 5 mg/kg, route intravenous; conditions: plasma
[5] = Cmax in Sprague-Dawley rat at 10 mg/kg, po; format: ADME, organism-based; design: dose 10 mg/kg, route oral; conditions: in vivo
[6] = Tmax in Sprague-Dawley rat at 10 mg/kg, po; format: ADME, organism-based; design: dose 10 mg/kg, route oral; conditions: in vivo
[7] = Half life in Sprague-Dawley rat at 10 mg/kg, po; format: ADME, organism-based; design: dose 10 mg/kg, route oral; conditions: in vivo
[8] = Half life in Sprague-Dawley rat at 5 mg/kg, iv; format: ADME, organism-based; design: dose 5 mg/kg, route intravenous; conditions: in vivo
[9] = Clearance in Sprague-Dawley rat at 5 mg/kg, iv; format: ADME, organism-based; design: dose 5 mg/kg, route intravenous; conditions: in vivo
[10] = Volume of distribution in Sprague-Dawley rat at 5 mg/kg, iv; format: ADME, organism-based; design: dose 5 mg/kg, route intravenous; conditions: in vivo, read-out: Vdss
[11] = Bioavailability in Sprague-Dawley rat at 10 mg/kg, po; format: ADME, organism-based; conditions: in vivo
Mus musculus [12] = assay: Decrease in plasma glucose level in db/db mouse at 0.1 mg/kg, po; format: functional; design: scale not given: the % may be the effect or the level left
Mus musculus [13] = assay: Decrease in plasma glucose level in db/db mouse at 1 mg/kg, po; format: functional; design: scale not given: the % may be the effect or the level left
Mus musculus [14] = assay: Decrease in plasma glucose level in db/db mouse at 10 mg/kg, po; format: functional; design: scale not given: the % may be the effect or the level left
Mus musculus [15] = assay: Decrease in plasma triglyceride level in db/db mouse at 0.1 mg/kg, po; format: functional; design: scale not given: the % may be the effect or the level left
Mus musculus [16] = assay: Decrease in plasma triglyceride level in db/db mouse at 1 mg/kg, po; format: functional; design: scale not given: the % may be the effect or the level left
Mus musculus [17] = assay: Decrease in plasma triglyceride level in db/db mouse at 10 mg/kg, po; format: functional; design: scale not given: the % may be the effect or the level left

Row | Compound | EC50 [1] | EC50 [2] | also measured
1 | C/C(=N\OCc1ccc(F)cc1)C(Cc1ccc(OCCc2nc(-c3ccccc3)oc2C)cc1)C(=O)O (stereo not given) | 10.6 nM | 0.54 nM | –
2 | CCO/N=C(\CC)C(Cc1ccc(OCCc2nc(-c3ccccc3)oc2C)cc1)C(=O)O (stereo not given) | 26 nM | 0.1 nM | –
3 | CO/N=C(\C)C(Cc1ccc(OCCc2nc(-c3ccccc3)oc2C)cc1)C(=O)O (stereo not given) | 19 nM | 2.1 nM | –
4 | CCO/N=C(\C)C(Cc1ccc(OCc2nc(-c3ccccc3)oc2C)cc1)C(=O)O (stereo not given) | 91 nM | 4 nM | –
5 | CCCO/N=C(\C)C(Cc1ccc(OCc2nc(-c3ccccc3)oc2C)cc1)C(=O)O (stereo not given) | 19 nM | 13 nM | AUC(0-t) at 24 h [3]: 162 µg·h/mL; AUC(0-t) at 24 h [4]: 113 µg·h/mL; Cmax [5]: 22600 ng/mL; Tmax [6]: 0.5 h; half-life [7]: 8.05 h; half-life [8]: 5.93 h; clearance [9]: 0.8 mL/min/kg; Vd [10]: 0.329 L/kg; bioavailability [11]: 75.5%; Activity (Mus musculus [12]): 8%; Activity (Mus musculus [13]): 56%; Activity (Mus musculus [14]): 73%; Activity (Mus musculus [15]): 43%; Activity (Mus musculus [16]): 41%; Activity (Mus musculus [17]): 58%
6 | CCCCO/N=C(\C)C(Cc1ccc(OCCc2nc(-c3ccccc3)oc2C)cc1)C(=O)O (stereo not given) | 1.3 nM | 0.19 nM | –
7 | CC/C(=N\OC)C(Cc1ccc(OCCc2nc(-c3ccccc3)oc2C)cc1)C(=O)O (stereo not given) | 32 nM | 0.31 nM | –
8 | CCCO/N=C(\C)C(Cc1ccc(OCCc2nc(-c3ccc(F)cc3)oc2C)cc1)C(=O)O (stereo not given) | 4 nM | 2.1 nM | –
9 | CCO/N=C(\C)C(Cc1ccc(OCCc2nc(C(C)C)oc2C)cc1)C(=O)O (stereo not given) | 139 nM | 20 nM | –
10 | C/C(=N\OCCF)C(Cc1ccc(OCCc2nc(-c3ccc(F)cc3)oc2C)cc1)C(=O)O (stereo not given) | 3.5 nM | 2.9 nM | –
11 | CCCO/N=C(\C)C(Cc1ccc(OCc2nc(C(C)C)oc2C)cc1)C(=O)O (stereo not given) | 105 nM | 5 nM | –
12 | CCO/N=C(\C)C(Cc1ccc(OCCc2nc(-c3ccccc3)oc2C)cc1)C(=O)O (stereo not given) | 12 nM | 1 nM | –
13 | CCCO/N=C(\C)C(Cc1ccc(OCCc2nc(C(C)C)oc2C)cc1)C(=O)O (stereo not given) | 10 nM | 5.2 nM | –
14 | CN(CCOc1ccc(CC2SC(=O)NC2=O)cc1)c1ccccn1 (stereo not given) [ROSIGLITAZONE] | – | – | Activity (Mus musculus [14]): 65%; Activity (Mus musculus [17]): 65%
15 | C/C(=N\OCCF)C(Cc1ccc(OCc2nc(-c3ccc(F)cc3)oc2C)cc1)C(=O)O (stereo not given) | 23 nM | 7.7 nM | –
16 | CCO/N=C(\C)C(Cc1ccc(OCc2nc(-c3ccc(F)cc3)oc2C)cc1)C(=O)O (stereo not given) | 12 nM | 6.8 nM | –
17 | CCCO/N=C(\C)C(Cc1ccc(OCc2nc(-c3ccc(F)cc3)oc2C)cc1)C(=O)O (stereo not given) | 11.7 nM | 28 nM | –
18 | CCO/N=C(\C)C(Cc1ccc(OCCc2nc(-c3ccc(F)cc3)oc2C)cc1)C(=O)O (stereo not given) | 11.5 nM | 3 nM | –
19 | C/C(=N\OCC1CC1)C(Cc1ccc(OCCc2nc(-c3ccccc3)oc2C)cc1)C(=O)O (stereo not given) | 3.1 nM | 0.36 nM | –
20 | CCO/N=C(\C)C(Cc1ccc(OCc2nc(C(C)C)oc2C)cc1)C(=O)O (stereo not given) | 1240 nM | 48 nM | –
21 | CCO[C@@H](Cc1ccc(OCCc2ccc(OS(C)(=O)=O)cc2)cc1)C(=O)O [TESAGLITAZAR] | 9800 nM | 3530 nM | Activity (Mus musculus [13]): 68%; Activity (Mus musculus [16]): 38%
22 | C/C(=N/OCc1ccc(F)cc1)C(Cc1ccc(OCCc2nc(-c3ccccc3)oc2C)cc1)C(=O)O (stereo not given) | 596 nM | 5 nM | –
23 | CCCO/N=C(\C)C(Cc1ccc(OCCc2nc(-c3ccccc3)oc2C)cc1)C(=O)O (stereo not given) | 4.9 nM | 0.55 nM | –
24 | C/C(=N\OCC(C)C)C(Cc1ccc(OCCc2nc(-c3ccccc3)oc2C)cc1)C(=O)O (stereo not given) | 2.2 nM | 0.3 nM | –

From ChEMBL document CHEMBL1143807, “Design and synthesis of oxime ethers of alpha-acyl-beta-phenylpropanoic acids as PPAR dual agonists” (Bioorg Med Chem Lett, 2007)
